Measured values from ChEMBL document CHEMBL1136380, “Synthesis of beta-lactamase activated nitric oxide donors” (Bioorg Med Chem Lett, 2003).

How the values were obtained:
[1] = NO releasing ability of the measured through the formation of nitrite (NO2) in solution, following incubation in the absence of beta-lactamase (Compound+penicillinase)
[2] = NO releasing ability of the measured through the formation of nitrite (NO2) in solution, following incubation in the presence of beta-lactamase
[3] = The NO releasing ability measured through the formation of nitrite (NO2) in solution, following incubation of the compound

Row | SMILES | Concentration [1] | Concentration [2] | Concentration [3]
1 | O=C(Cc1cccs1)N[C@@H]1C(=O)N2C(C(=O)O)=C(COC(=O)/N=c3/c[n+](N4CCOCC4)[n-]o3)CS[C@H]12 | 10.2 µM | 2.2 µM | –
2 | [NH-]c1c[n+](N2CCOCC2)no1 | – | – | 15.5 µM
